According to PubChem BioAssay AID248 (DTP/NCI, 2004):
Values joined by “and” are separate entries in the source; they are usually repeats but may differ in a detail not shown here. Equal values may be shown once. Toxic doses and inconclusive results are not listed. Rule as the data show it: active = T/C of 150% or more; inactive = T/C below 125%.

Test system: L1210 leukemia ip in BDF1 mice, survival T/C
Assay: NCI In Vivo Anticancer Drug Screen. Data for tumor model L1210 Leukemia (intraperitoneal) in B6D2F1 (BDF1) mice
Conditions: endpoint: mean survival time, higher = longer survival
Summary of the method: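 Ratio derived from survival: compound-dosed mice over vehicle-dosed mice, all bearing a transplantable tumor.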

[1] = dose: 100.0 mg/kg/injection, schedule: Q04DX003 (ip), vehicle: saline
[2] = dose: 200.0 mg/kg/injection, schedule: Q04DX003 (ip), vehicle: saline
[3] = dose: 400.0 mg/kg/injection, schedule: Q04DX003 (ip), vehicle: saline
[4] = dose: 100.0 mg/kg/injection, schedule: Q04DX002 (ip), vehicle: saline with Tween-80
[5] = dose: 100.0 mg/kg/injection, schedule: Q01DX001 (ip), vehicle: saline
[6] = dose: 100.0 mg/kg/injection, schedule: Q04DX003 (ip), vehicle: Klucel (hydroxypropylcellulose) (HPC)
[7] = dose: 200.0 mg/kg/injection, schedule: Q01DX001 (ip), vehicle: saline
[8] = dose: 200.0 mg/kg/injection, schedule: Q04DX003 (ip), vehicle: Klucel (hydroxypropylcellulose) (HPC)
[9] = dose: 400.0 mg/kg/injection, schedule: Q01DX001 (ip), vehicle: saline
[10] = dose: 400.0 mg/kg/injection, schedule: Q04DX003 (ip), vehicle: Klucel (hydroxypropylcellulose) (HPC)
[11] = dose: 100.0 mg/kg/injection, schedule: Q04DX003 (ip), vehicle: saline with Tween-80
[12] = dose: 100.0 mg/kg/injection, schedule: Q01DX009 (ip), vehicle: Klucel (hydroxypropylcellulose) (HPC)
[13] = dose: 200.0 mg/kg/injection, schedule: Q01DX009 (ip), vehicle: Klucel (hydroxypropylcellulose) (HPC)
[14] = dose: 400.0 mg/kg/injection, schedule: Q01DX009 (ip), vehicle: Klucel (hydroxypropylcellulose) (HPC)

Measured: T/C

Cc1cccc2sc(=S)[nH]c12
inactive: dose: 37.5 mg/kg/injection, schedule: Q04DX003 (ip), vehicle: Klucel (hydroxypropylcellulose) (HPC) 107 % of control | dose: 75.0 mg/kg/injection, schedule: Q01DX009 (ip), vehicle: Klucel (hydroxypropylcellulose) (HPC) 92 % of control | dose: 75.0 mg/kg/injection, schedule: Q04DX003 (ip), vehicle: Klucel (hydroxypropylcellulose) (HPC) 101 % of control | dose: 150.0 mg/kg/injection, schedule: Q01DX009 (ip), vehicle: Klucel (hydroxypropylcellulose) (HPC) 92 % of control | dose: 150.0 mg/kg/injection, schedule: Q04DX003 (ip), vehicle: Klucel (hydroxypropylcellulose) (HPC) 93 % of control | dose: 300.0 mg/kg/injection, schedule: Q01DX009 (ip), vehicle: Klucel (hydroxypropylcellulose) (HPC) 93 % of control | dose: 300.0 mg/kg/injection, schedule: Q04DX003 (ip), vehicle: Klucel (hydroxypropylcellulose) (HPC) 95 % of control

Nc1ccc(Oc2ccc(S(=O)(=O)O)cc2)cc1
inactive: [1] 93 % of control | [2] 94 % of control | [3] 94 % of control

Nc1cccnc1
inactive: dose: 5.0 mg/kg/injection, schedule: Q01DX009 (ip), vehicle: saline 104 % of control | dose: 10.0 mg/kg/injection, schedule: Q01DX009 (ip), vehicle: saline 95 % of control | dose: 20.0 mg/kg/injection, schedule: Q01DX009 (ip), vehicle: saline 98 % of control

BrCCCc1ccccc1
inactive: dose: 75.0 mg/kg/injection, schedule: Q01DX001 (ip), vehicle: saline 95 % of control | dose: 150.0 mg/kg/injection, schedule: Q01DX001 (ip), vehicle: saline 97 % of control

Nc1ccc(C(=O)C(=O)c2ccc(N)cc2)cc1
inactive: dose: 75.0 mg/kg/injection, schedule: Q01DX001 (ip), vehicle: acetone 102 % of control | dose: 150.0 mg/kg/injection, schedule: Q01DX001 (ip), vehicle: acetone 94 % of control

O=C(CCN1CC2CCC(CC2)C1)c1csc2ccccc12
inactive: dose: 88.8 mg/kg/injection, schedule: Q01DX001 (ip), vehicle: carboxymethylcellulose (CMC) 93 % of control | dose: 100.0 mg/kg/injection, schedule: Q01DX001 (ip), vehicle: carboxymethylcellulose (CMC) 91 % of control | dose: 133.4 mg/kg/injection, schedule: Q01DX001 (ip), vehicle: carboxymethylcellulose (CMC) 98 % of control | dose: 200.0 mg/kg/injection, schedule: Q01DX001 (ip), vehicle: carboxymethylcellulose (CMC) 97 % of control | dose: 300.0 mg/kg/injection, schedule: Q01DX001 (ip), vehicle: carboxymethylcellulose (CMC) 95 % of control | dose: 400.0 mg/kg/injection, schedule: Q01DX001 (ip), vehicle: carboxymethylcellulose (CMC) 107 % of control

Cc1nc(C(=O)O)c(=O)[nH]c1C
inactive: dose: 50.0 mg/kg/injection, schedule: Q01DX009 (ip), vehicle: water 103 % of control | dose: 100.0 mg/kg/injection, schedule: Q01DX009 (ip), vehicle: water 103 % of control | dose: 100.0 mg/kg/injection, schedule: Q04DX003 (ip), vehicle: water 102 % of control | dose: 200.0 mg/kg/injection, schedule: Q01DX009 (ip), vehicle: water 101 % of control | dose: 200.0 mg/kg/injection, schedule: Q04DX003 (ip), vehicle: water 101 % of control

C[P+](c1ccccc1)(c1ccc(Cl)cc1)c1ccc(Cl)cc1
inactive: dose: 25.0 mg/kg/injection, schedule: Q04DX002 (ip), vehicle: saline 100 % of control | dose: 50.0 mg/kg/injection, schedule: Q04DX002 (ip), vehicle: saline 95 % of control | [4] 116 % of control

O=c1[nH]c(/C=C/c2ccc(Cl)cc2)nc(O)c1-c1ccc(Cl)cc1
inactive: [5] 104 % of control | [6] 102 % of control | [7] 98 % of control | [8] 96 % of control | [9] 93 % of control | [10] 98 % of control

O=[N+]([O-])c1ncn(C2OC(CO)C(O)C2O)c1Br (centres undefined)
inactive: dose: 50.0 mg/kg/injection, schedule: Q01DX001 (ip), vehicle: saline 98 % of control | [5] 102 % of control | [7] 102 % of control | [9] 104 % of control

COc1ccc(C(=C2CCCCC2)c2ccc(OC)cc2)cc1
inactive: dose: 100.0 mg/kg/injection, schedule: Q01DX001 (ip), vehicle: saline with Tween-80 95 % of control | dose: 200.0 mg/kg/injection, schedule: Q01DX001 (ip), vehicle: saline with Tween-80 94 % of control | dose: 400.0 mg/kg/injection, schedule: Q01DX001 (ip), vehicle: saline with Tween-80 88 % of control

c1ccc(SCc2ncc3cnccn23)cc1
inactive: [11] 97 % of control | dose: 200.0 mg/kg/injection, schedule: Q04DX003 (ip), vehicle: saline with Tween-80 94 % of control | dose: 400.0 mg/kg/injection, schedule: Q04DX003 (ip), vehicle: saline with Tween-80 103 % of control

O=C(CCCCC(=O)Nc1cc(C(=O)Nc2ccc(C3=NCCN3)cc2)ccc1C(=O)Nc1ccc(C2=NCCN2)cc1)Nc1cc(C(=O)Nc2ccc(C3=NCCN3)cc2)ccc1C(=O)Nc1ccc(C2=NCCN2)cc1
inactive: dose: 1.25 mg/kg/injection, schedule: Q01DX Z (ip), vehicle: saline 90 % of control | dose: 2.5 mg/kg/injection, schedule: Q01DX Z (ip), vehicle: saline 95 % of control | dose: 5.0 mg/kg/injection, schedule: Q01DX Z (ip), vehicle: saline 88 % of control | dose: 10.0 mg/kg/injection, schedule: Q01DX Z (ip), vehicle: saline 101 % of control | dose: 15.0 mg/kg/injection, schedule: Q01DX Z (ip), vehicle: methylcellulose (MC) 103 % of control | dose: 30.0 mg/kg/injection, schedule: Q01DX Z (ip), vehicle: methylcellulose (MC) 110 % of control

COC(=O)c1nn2c(=O)c3cccc4cccc(c43)c2c1C(=O)OC
inactive: [12] 95 % of control | [13] 98 % of control | [14] 100 % of control

CN(C)CC(Cl)CCl (centres undefined)
inactive: [1] 98 % of control | [2] 107 % of control | [3] 115 % of control

O=C(Nc1ccc([N+](=O)[O-])cc1Cl)Oc1cccc2ccccc12
inactive: [12] 96 % of control | [6] 105 % of control | [13] 96 % of control | [8] 105 % of control | [14] 102 % of control | [10] 105 % of control

COc1ccc(CC(C)=C(C#N)C#N)cc1OC
inactive: dose: 25.0 mg/kg/injection, schedule: Q04DX002 (ip), vehicle: saline with Tween-80 103 % of control | dose: 50.0 mg/kg/injection, schedule: Q04DX002 (ip), vehicle: saline with Tween-80 97 % of control | [4] 97 % of control

CCOP(=S)(NN=C1CCC(C(C)(C)C)CC1)OCC (centres undefined)
inactive: [5] 103 % of control | [7] 97 % of control

C=CCc1ccc(OC(=O)Nc2ccc(C(=O)OCC)cc2)c(OC)c1
inactive: [12] 90 % of control | [13] 90 % of control

Cc1ccc2[nH]c(=O)oc(=O)c2c1
inactive: dose: 100.0 mg/kg/injection, schedule: Q01DX009 (ip), vehicle: saline with Tween-80 105 % of control | dose: 200.0 mg/kg/injection, schedule: Q01DX009 (ip), vehicle: saline with Tween-80 102 % of control

Clc1ncnc2ccccc12
inactive: dose: 100.0 mg/kg/injection, schedule: Q01DX001 (ip), vehicle: Klucel (hydroxypropylcellulose) (HPC) 94 % of control | dose: 200.0 mg/kg/injection, schedule: Q01DX001 (ip), vehicle: Klucel (hydroxypropylcellulose) (HPC) 95 % of control

O=C1C(O)C23CC=CCC12CC=CC3 (centres undefined)
inactive: [5] 116 % of control | [7] 105 % of control | [9] 100 % of control

COC(=O)c1c2ccccc2nc2c1c(C)c(C)c1ccccc12
inactive: [6] 96 % of control | [8] 110 % of control | [10] 101 % of control

COc1ccc2c(c1)C/C(=N\O)C2=O
inactive: [11] 102 % of control

[O-][n+]1c2ccc(Cl)cc2nc2ccc(Cl)cc21
inactive: dose: 25.0 mg/kg/injection, schedule: Q04DX003 (ip), vehicle: Klucel (hydroxypropylcellulose) (HPC) 95 % of control | dose: 50.0 mg/kg/injection, schedule: Q04DX003 (ip), vehicle: Klucel (hydroxypropylcellulose) (HPC) 93 % of control | [6] 92 % of control and 88 % of control

CCC(C(=O)NC(=O)NO)c1ccccc1 (centres undefined)
inactive: dose: 100.0 mg/kg/injection, schedule: Q01DX Z (ip), vehicle: carboxymethylcellulose (CMC) 94 % of control | dose: 300.0 mg/kg/injection, schedule: Q01DX Z (ip), vehicle: carboxymethylcellulose (CMC) 105 % of control | dose: 400.0 mg/kg/injection, schedule: Q01DX Z (ip), vehicle: carboxymethylcellulose (CMC) 90 % of control
